# Results taken from paper PMC7044277 (Nature Communications, 2020).
# Where “and” joins values, the source holds several entries; their conditions need not be identical. Identical values can stand only once.
# What was measured:
# Format in all cases: cell-based
# 320 non-olfactory GPCRs [1] = target: T1, 320 non-olfactory GPCRs (Homo sapiens, UniProt P32248)
# T1 construct: expressed in transfected cells; host or cells: HTLA cells
# 320 non-olfactory GPCRs [2] = target: 320 non-olfactory GPCRs (Homo sapiens, UniProt P14416)
# 320 non-olfactory GPCRs [3] = target: T2, 320 non-olfactory GPCRs (Homo sapiens, UniProt Q01718); conditions: receptor MC2R; replicate values, Fig_4g
# T2 construct: expressed in transfected cells; host or cells: HTLA cells
# 320 non-olfactory GPCRs [4] = target: 320 non-olfactory GPCRs (Homo sapiens, UniProt P30411)
# 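For Fold of Basal in this document: compound tested at 1 µM final concentration.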
# 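For GPCRome agonism screen response in this document: fold over basal response of each receptor without drug.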
# Chain of 320 non-olfactory GPCRs (Homo sapiens, UniProt P30411) (P30411 whole entry): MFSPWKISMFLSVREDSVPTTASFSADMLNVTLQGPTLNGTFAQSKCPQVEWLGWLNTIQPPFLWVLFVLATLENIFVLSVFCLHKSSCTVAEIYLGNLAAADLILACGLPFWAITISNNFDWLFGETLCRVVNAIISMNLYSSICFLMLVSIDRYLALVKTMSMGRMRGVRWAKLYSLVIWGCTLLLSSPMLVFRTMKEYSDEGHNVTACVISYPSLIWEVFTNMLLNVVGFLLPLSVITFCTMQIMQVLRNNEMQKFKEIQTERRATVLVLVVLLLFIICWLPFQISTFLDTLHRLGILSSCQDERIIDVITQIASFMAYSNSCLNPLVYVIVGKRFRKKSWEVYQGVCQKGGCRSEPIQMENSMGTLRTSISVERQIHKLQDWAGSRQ
# T1 sequence (P32248 25-378): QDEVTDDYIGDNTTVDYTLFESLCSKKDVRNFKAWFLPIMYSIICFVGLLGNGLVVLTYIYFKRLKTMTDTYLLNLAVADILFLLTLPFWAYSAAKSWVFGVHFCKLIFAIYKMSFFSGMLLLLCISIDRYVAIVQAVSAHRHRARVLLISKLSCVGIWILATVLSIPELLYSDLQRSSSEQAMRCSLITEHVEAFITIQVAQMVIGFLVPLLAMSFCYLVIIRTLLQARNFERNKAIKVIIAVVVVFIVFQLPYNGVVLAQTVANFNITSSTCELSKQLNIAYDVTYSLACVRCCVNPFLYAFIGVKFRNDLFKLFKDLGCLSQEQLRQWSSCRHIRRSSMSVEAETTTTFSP
# Chain of 320 non-olfactory GPCRs (Homo sapiens, UniProt P14416) (P14416 whole entry): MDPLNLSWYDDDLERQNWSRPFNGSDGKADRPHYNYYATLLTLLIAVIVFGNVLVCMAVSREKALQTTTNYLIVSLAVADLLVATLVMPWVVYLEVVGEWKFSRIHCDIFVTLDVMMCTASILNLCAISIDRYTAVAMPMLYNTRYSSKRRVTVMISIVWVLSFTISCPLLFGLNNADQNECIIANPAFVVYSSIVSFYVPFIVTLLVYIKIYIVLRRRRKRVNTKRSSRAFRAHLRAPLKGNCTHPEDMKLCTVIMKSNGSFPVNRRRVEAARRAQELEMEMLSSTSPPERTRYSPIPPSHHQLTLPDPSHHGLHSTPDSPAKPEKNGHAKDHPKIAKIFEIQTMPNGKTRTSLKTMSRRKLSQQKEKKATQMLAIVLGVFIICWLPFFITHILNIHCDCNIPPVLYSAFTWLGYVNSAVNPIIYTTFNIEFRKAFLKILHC
# T2 sequence (Q01718 whole entry): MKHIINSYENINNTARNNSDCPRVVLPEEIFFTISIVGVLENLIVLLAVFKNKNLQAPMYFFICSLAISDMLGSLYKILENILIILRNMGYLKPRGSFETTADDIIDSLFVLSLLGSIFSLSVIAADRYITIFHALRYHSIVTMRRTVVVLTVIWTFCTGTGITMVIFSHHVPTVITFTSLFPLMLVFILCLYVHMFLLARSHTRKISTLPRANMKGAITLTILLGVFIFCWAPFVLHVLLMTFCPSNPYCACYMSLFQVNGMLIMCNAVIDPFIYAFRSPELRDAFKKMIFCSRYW
compound,measurement,setting,value
CCOc1cccc2cc(C(C)NCC3(O)CCCCC3)oc12 (stereo not shown) [O4LE6],Fold of Basal,320 non-olfactory GPCRs [1],1.25 and 0.8767 and 0.9045 and 1.727
same,Fold of Basal,320 non-olfactory GPCRs [2],84.6178 and 80.3873 and 78.6628 and 75.3887
same,GPCRome agonism screen response,320 non-olfactory GPCRs [3],1.011 and 1.168 and 0.7811 and 1.192
same,Fold of Basal,320 non-olfactory GPCRs [4],1.112 and 0.7321 and 0.9055 and 1.0914
